Measured values reported in patent US20080171710A1, “The Redox/Fyn/c-Cbl Pathway” (priority 2007, published 2008).

Legend:
PDGFRα mRNA = assay: PDGFRα mRNA, real-time RT-PCR; type: cell-based, rat; conditions: MeHg exposure
Description: Total RNA was isolated using TRIZOL reagent (Inviirogen, Carlsbad, Calif., United States) according to the manufacturer's protocol. A total of 1 μg of RNA was subjected to reverse transcription using Superscript II (In vitrogen). The reactions were incubated at 42° C. for 50 min. The FAM-iabeled probe mixes for rat PDGFRα and Fyn, and the VIC-labeled GAPDH probe mix were purchased from Applied Biosystems (Foster City Calif., United States). For multiplex real-time PCR, reactions each containing 5 μl of 10-fold diluted reverse transcription product, 1 μl of interest gene probe mix. 1 μl of GAPDH probe mix, and 10 μl of TaqMan Universal PCR Master Mix were performed on an iCycler iQ multicolor real-time PCR system (Bio-Rad, Hercules, Calif., United States) and cycling condition was 50° C. for 2 min and 95° C. for 10 min, followed by 40 cycles of 95° C. for 15 sec and 60° C. for 1 min. Each sample was run in triplicate. Data were analyzed, by iCycler iQ software (Bio-Rad).

O-2A/OPCs [1] = assay: Cell death of O-2A/OPCs on exposure; type: cell-based, rat
Description: To generate sufficient numbers of cells for biochemical analysis, cells, were expanded through one to two passages in PDGF+FGF-2 before replating in the presence of PDGF alone. When cells achieved approximately 50% confluence, MeHg, Pb, or paraquat was added to their medium at concentrations indicated. Doses for the toxicants were chosen on the basis of dose-response curves to identify sub-lethal exposure levels, as a reflection of blood and brain toxicant levels of these compounds and, where applicable, on the basis of previous reports. All toxicant concentrations examined were confirmed to cause death of less than 5% of cells over the time course of the experiment.

Erk1/2 = type: cell-based, rat
PDGFRα [2] = assay: PDGFR ubiquitylation (immunoprecipitation assay); type: cell-based, rat; conditions: MeHg exposure
Description: For the co-immunoprecipitation assay, anti-c-Cbl monoclonal antibody (BD PharMingen) or anti-PDGFRα polyclonal antibody (Santa Cruz Biotechnology) was added to the pre-cleared cell lysates (250 μg of total protein), and the mixtures were gently rocked for 2 h at 4° C. A total of 30 μl of protein A/G agarose was then added to the mixture followed by rotating at 4° C. overnight. The protein A/G agarose was then spun down and washed thoroughly three times. The precipitates were resolved on an 8% SDS-PAGE gel and then were subjected to Western blot analysis using an anti-p-Tyr (for c-Cbl phosphorylation assay) or ubiquitin (for PDGFR ubiquitylation assay) antibody (Santa Cruz Biotechnology).

PDGFRα [3] = assay: PDGFRα levels in brain tissue after developmental exposure; type: in vivo, SJL mice; conditions: 100 or 250 ppb MeHg in maternal drinking water; cerebellum, hippocampus, corpus callosum; 7 and 21 d after birth
Source text: Anti-phosphorylated Erk monoclonal, anti-Erk monoclonal, anti-TrkC polyclonal anti-Fyn polyclonal, anti-EGFR polyclonal, anti-c-Met polyclonal, anti-phospho-tyrosine monoclonal, and anti-PDGFRα polyclonal antibodies were obtained from Santa Cruz Biotechnology (Santa Cruz, Calif., United States). Anti-c-Cbl monoclonal antibody was obtained from BD PharMingen (San Diego, Calif., United States). Anti-phosphorylated Akt monoclonal and anti-Akt polyclonal antibodies were obtained from Cell Signaling Technology (Beverly, Mass., United States). Anti-phosphorylated PDGPRα polyclonal antibody was obtained from Biosource (Carlsbad, Calif., United States). The cell culture samples were collected and lysed in RAPI buffer, whereas dissected tissue samples were sonicated in RAPI buffer. Samples were resolved on SDS-PAGE gels and transferred to PVDF membranes (PerkinElmer Life Science. Wellesley, Mass., United States), After being blocked in 5% skim milk in PBS containing 0.1% Tween 20, membranes were incubated with a primary antibody, followed by incubation with an HRP-conjugated secondary antibody (Santa Cruz Biotechnology). Membranes were visualized using Western Blotting Luminol Reagent (Santa Cruz Biotechnology). […]

MDA-MB-231 cell = MDA-MB-231 cell division by BrdU incorporation; type: cell-based; conditions: NAC 1 mM or PP1 200 nM with 20 μM tamoxifen, 48 hours
Description: It has been reported that c-Cbl induced down-regulation of EGFR is disabled in cancer cells (Hirsch DS, Shen. Y, Wu WJ, (2006) Cancer Res. Apr 1;66(7):3523-30). Thus, growth and motility inhibition of breast cancer cells by EGFR degradation is correlated with inaetivation of Cdc42. […] Cells were cultured in phenol red-free growth media and exposed to TMX (0, 1 μM, 10 μM, 20 μM and 50 μM) for 48 hours, with or without 1 mM NAC. In FIG. 22C. MDA-MB-231 cell division was analyzed by BrdU incorporation analysis. […] Percentage of Brdu+ cells from DAPI+ cells was determined in each sample.

O-2A/OPCs [4] = assay: Analysis of Pb uptake (Leadmium Green AM); type: cell-based, rat; conditions: 1 μM Pb, 1 mM NAC
Description: Pre-treatment with NAC was assayed to determine whether levels of intracellular Pb was altered using analysis with the Leadmium Green AM dye (Molecular Probes), according to the manufacturer's instructions. […] (unpaired t-test), and the values for both Pb-treated samples were several-fold higher than control values.

SMILES	levels of PDGFRα mRNA (PDGFRα mRNA)	cell death at the concentrations used (O-2A/OPCs [1]; MeHg at lower concentrations (not above 50 nM), 1 μM Pb, 5 μM paraquat)	exposure level associated with significant lethality (O-2A/OPCs [1]; O-2A/OPCs)	NT-3-induced Erk1/2 phosphorylation (Erk1/2; 30 nM MeHg)	PDGF-induced Erk1/2 phosphorylation after toxicant exposure (Erk1/2; 30 nM MeHg 24 h, 1 μM Pb, 5 μM paraquat)	ubiquitylation of PDGFRα (PDGFRα [2])	levels of PDGFRα in brain (PDGFRα [3])	rescue from tamoxifen effect on cell division (MDA-MB-231 cell)	Pb levels in cells, Pb versus Pb and NAC (O-2A/OPCs [4])	effect on EtOH suppression of Erk1/2 phosphorylation (Erk1/2; 1 mM NAC with EtOH)	effect on Aβ(1-42) suppression of PDGF-mediated Erk1/2 phosphorylation (Erk1/2; co-exposure with Aβ(1-42))	effect on MeHg-associated suppression of Erk1/2 phosphorylation (Erk1/2; co-treatment with MeHg)	effect on Pb and paraquat effects on Erk1/2 phosphorylation (Erk1/2; co-treatment with Pb or paraquat)
[CH3][Hg][Cl] [MeHg, methylmercury]	did not have any significant effects	little or no cell death	above 50 nM	no reduction in Erk1/2 phosphorylation	reduced ERK1/2 phosphorylation	enhanced ubiquitylation	clear and significant reductions						
CC(=O)N[C@@H](CS)C(=O)O [NAC, N-acetyl-L-cysteine]								did not result in any rescue effect	no significant difference	rescued	blocked	rescued	protected
